Source: ChEMBL document CHEMBL3301562, “MMV Box screening against Plasmodium falciparum protein kinases and aminoacyl tRNA synthetases”

Assays:
Type in all cases: functional
[1] = biological target: Calcium-dependent protein kinase 1 (Plasmodium falciparum, UniProt P62344); assay: MMV: CDPK1 Protein kinase inhibition assay using recombinant PfCDPK1, syntide 2 peptide substrate, ATP and KinaseGlo to measure % inhibition at 1 uM MMV box compound.
[2] = biological target: T1, Mitogen-activated protein kinase (Plasmodium falciparum, UniProt Q25917); assay: Final concentrations were 1 uM ATP, 0.5 mM DTT, 1 mM MgCl2, 0.5 mg/mL BSA, and 10 ug/ml MAP2 in a buffer of 50 mM HEPES (pH 7.0). 0.5 mg/mL histone III-S served as the substrate (13); 100 uM AMP-PNP, an ATP analog, was used as a control inhibitor. Incubation time was 4 hours.
T1 sequence (Q25917 whole entry): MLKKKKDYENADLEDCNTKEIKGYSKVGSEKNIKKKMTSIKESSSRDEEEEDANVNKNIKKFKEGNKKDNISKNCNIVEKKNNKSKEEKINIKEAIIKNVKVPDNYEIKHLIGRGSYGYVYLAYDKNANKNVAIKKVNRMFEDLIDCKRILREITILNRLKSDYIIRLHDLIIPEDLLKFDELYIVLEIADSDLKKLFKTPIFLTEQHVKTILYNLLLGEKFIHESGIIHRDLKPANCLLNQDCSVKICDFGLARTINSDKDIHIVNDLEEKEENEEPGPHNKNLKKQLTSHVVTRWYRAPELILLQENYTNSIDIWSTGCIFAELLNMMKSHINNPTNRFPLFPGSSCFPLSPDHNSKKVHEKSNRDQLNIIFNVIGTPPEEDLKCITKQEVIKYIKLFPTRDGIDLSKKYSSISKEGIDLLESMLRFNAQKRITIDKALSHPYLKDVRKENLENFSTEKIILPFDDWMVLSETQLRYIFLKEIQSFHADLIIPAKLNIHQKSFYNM

[3] = biological target: T2, Putative uncharacterized protein pk7 (Plasmodium falciparum, UniProt O96214); assay: Final concentrations were 1 uM ATP, 2 mM DTT, 20 mM MgCl2, 2 mM MnCl2, 0.01% BSA, and 6 ug/ml PK7, in a buffer of 20 mM Tris-HCl (pH 7.5). The enzyme itself was the only substrate present (since autophosphorylation occurs); 100 uM 1NA-PP1 was used as a control inhibitor. Incubation time was 3 hours.
T2 sequence (O96214 whole entry): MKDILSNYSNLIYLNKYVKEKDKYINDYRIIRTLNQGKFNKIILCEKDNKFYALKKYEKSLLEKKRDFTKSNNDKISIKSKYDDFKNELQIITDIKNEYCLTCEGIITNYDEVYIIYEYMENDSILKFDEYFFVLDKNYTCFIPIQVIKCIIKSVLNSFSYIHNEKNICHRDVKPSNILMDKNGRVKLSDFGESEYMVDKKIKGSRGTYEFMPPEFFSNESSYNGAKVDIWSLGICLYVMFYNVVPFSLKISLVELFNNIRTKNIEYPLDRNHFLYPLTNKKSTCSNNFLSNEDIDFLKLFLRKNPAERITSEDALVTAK

[4] = biological target: T3, Calcium-dependent protein kinase 4 (Plasmodium falciparum (isolate 3D7), UniProt Q8IBS5); assay: MMV: CDPK4 Protein kinase inhibition assay using recombinant PfCDPK4, syntide2 peptide substrate, ATP and KinaseGlo to measure % inhibition at 1 uM MMV box compound.
T3 sequence (Q8IBS5 whole entry): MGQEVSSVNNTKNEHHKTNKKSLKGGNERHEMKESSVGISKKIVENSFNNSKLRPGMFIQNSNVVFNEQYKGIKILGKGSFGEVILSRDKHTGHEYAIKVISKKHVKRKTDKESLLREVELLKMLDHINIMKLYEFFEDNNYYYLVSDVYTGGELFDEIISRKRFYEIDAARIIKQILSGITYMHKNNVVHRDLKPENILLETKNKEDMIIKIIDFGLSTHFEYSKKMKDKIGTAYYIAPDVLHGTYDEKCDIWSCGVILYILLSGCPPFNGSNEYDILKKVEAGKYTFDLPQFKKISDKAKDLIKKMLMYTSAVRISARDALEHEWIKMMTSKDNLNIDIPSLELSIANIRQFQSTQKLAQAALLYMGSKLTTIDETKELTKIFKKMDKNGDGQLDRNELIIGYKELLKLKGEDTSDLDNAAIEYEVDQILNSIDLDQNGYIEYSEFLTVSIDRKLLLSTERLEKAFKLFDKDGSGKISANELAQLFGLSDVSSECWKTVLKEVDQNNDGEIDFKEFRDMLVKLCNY

[5] = biological target: Lysine--tRNA ligase (Plasmodium falciparum (isolate 3D7), UniProt Q8IDJ8); assay: MMV: KRS recombinant Plasmodium falciparum Lysyl-tRNA-synthetase, assay with yeast tRNA, ATP, and lysine and 3 uM MMV malaria box compound, assay read out with kinase glo as % inhibition.
[6] = biological target: T4, Cdk-related protein kinase 6 (Plasmodium falciparum, UniProt O77239); assay: Final concentrations were 1.5 uM ATP, 5 mM MnCl2, and 15 ug/ml PK6 in a buffer of 100 mM Tris-HCl (pH 7.5). 50 ug/mL MBP was provided as the substrate; 10 uM staurosporine was used as a control inhibitor. Incubation time was 3 hours and 40 minutes.The catalytic activity of each kinase was considered proportional to ATP consumed, as determined from measurements of residual [ATP] with the luciferase-based reagent Kinase-Glo (Promega) following incubation. Luminescence (proportional to residual [ATP]) was measured on the plate readers FLx800 (BioTek Instruments, Winooski, VT, USA) and MicroBeta2.
T4 sequence (O77239 whole entry): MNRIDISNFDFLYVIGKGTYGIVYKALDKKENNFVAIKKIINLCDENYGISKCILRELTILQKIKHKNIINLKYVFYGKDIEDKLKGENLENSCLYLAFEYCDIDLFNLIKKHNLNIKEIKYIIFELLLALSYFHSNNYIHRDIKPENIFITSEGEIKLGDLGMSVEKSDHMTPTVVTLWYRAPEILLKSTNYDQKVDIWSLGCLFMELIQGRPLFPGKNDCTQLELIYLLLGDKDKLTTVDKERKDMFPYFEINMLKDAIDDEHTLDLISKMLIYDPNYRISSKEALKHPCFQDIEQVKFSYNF

[7] = biological target: T5, Proline--tRNA ligase (Plasmodium falciparum (isolate 3D7), UniProt Q8I5R7); assay: MMV: ProRS recombinant Plasmodium falciparum Prolyl-tRNA-synthetase, assay with yeast tRNA, ATP, and proline and 3 uM MMV malaria box compound, assay read out with kinase glo as % inhibition.
T5 sequence (Q8I5R7 whole entry): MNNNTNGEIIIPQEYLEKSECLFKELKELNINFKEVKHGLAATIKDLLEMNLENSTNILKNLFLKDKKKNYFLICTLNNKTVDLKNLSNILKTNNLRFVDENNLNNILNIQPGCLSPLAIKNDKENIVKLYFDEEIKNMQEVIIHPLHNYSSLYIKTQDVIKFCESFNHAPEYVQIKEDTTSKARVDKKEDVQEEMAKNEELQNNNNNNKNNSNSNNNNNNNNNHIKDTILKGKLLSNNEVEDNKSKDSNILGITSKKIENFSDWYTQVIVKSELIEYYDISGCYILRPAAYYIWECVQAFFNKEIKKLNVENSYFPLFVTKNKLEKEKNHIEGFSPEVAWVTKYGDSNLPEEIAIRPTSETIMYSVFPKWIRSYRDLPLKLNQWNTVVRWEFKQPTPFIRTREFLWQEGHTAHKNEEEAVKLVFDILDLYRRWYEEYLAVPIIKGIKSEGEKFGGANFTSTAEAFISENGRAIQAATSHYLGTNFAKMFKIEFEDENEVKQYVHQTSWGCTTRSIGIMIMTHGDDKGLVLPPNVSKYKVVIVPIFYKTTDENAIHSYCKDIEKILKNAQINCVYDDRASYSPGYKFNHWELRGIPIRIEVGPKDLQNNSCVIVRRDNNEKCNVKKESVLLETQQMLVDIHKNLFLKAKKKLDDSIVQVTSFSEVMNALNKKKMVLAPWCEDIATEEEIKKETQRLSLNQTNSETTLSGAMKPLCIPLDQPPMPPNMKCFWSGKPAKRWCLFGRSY

Chain of Calcium-dependent protein kinase 1 (P62344 whole entry): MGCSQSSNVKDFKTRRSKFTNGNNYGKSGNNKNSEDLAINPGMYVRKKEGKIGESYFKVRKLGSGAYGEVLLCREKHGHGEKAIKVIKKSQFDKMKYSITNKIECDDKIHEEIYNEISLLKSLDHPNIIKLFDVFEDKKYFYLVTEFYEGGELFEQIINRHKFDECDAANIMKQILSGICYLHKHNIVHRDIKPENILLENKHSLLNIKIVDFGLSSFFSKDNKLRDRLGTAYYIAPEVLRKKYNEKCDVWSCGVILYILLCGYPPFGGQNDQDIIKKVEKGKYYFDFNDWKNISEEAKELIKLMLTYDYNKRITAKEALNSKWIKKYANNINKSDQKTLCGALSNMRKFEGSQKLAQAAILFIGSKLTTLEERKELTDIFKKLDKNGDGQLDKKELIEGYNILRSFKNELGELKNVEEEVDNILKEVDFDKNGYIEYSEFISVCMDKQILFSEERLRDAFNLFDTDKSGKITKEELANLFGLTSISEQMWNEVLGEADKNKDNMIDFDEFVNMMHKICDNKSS
Chain of Lysine--tRNA ligase (Q8IDJ8 whole entry): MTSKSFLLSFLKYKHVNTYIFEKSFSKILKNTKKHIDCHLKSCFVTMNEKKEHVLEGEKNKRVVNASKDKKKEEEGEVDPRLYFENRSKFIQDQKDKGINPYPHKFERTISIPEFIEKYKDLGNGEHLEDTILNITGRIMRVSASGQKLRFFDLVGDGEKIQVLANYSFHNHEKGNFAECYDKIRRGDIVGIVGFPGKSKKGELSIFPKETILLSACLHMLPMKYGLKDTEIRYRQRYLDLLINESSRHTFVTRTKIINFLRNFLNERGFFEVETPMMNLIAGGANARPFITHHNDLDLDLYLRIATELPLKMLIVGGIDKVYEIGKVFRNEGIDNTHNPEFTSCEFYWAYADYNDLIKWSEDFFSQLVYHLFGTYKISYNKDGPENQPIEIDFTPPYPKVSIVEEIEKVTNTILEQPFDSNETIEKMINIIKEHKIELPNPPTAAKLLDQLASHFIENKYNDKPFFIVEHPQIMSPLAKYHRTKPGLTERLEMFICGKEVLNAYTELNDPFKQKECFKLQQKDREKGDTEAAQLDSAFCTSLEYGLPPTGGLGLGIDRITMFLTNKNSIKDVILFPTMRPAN

Structure (SMILES)	IC50 [1] [nM]	IC50 [2] [nM]	IC50 [3] [nM]	IC50 [4] [nM]	IC50 [5] [nM]	IC50 [6] [nM]	IC50 [7] [nM]
C[n+]1c2ccccc2nc2ccc(NCCO)cc21	> 1000	> 1000	> 1000	> 1000	> 2500	> 1000	> 2500
Cc1ccc(-c2cc3c(nn2)-c2ccccc2C3=O)cc1	> 1000	> 1000	> 1000	> 1000	> 2500	> 1000	> 2500
CCC(C)NCC(O)(c1ccc(Cl)cc1)c1ccc(Cl)cc1 (stereo not given)	> 1000	> 1000	> 1000	> 1000	> 2500	> 1000	> 2500
COCCNC(=O)c1ccc(OC2CCN(Cc3ccc(F)c(F)c3)CC2)c(Cl)c1	> 1000	> 1000	> 1000	> 1000	> 2500	> 1000	> 2500
COc1ccc(C(=O)Nc2nonc2-c2ccc(OC)c(OC)c2)cc1Cl	> 1000	> 1000	> 1000	> 1000	> 2500	> 1000	> 2500
COCCN(C(=O)Cc1cccs1)C(C(=O)NCc1ccc(OC)cc1)c1ccc(C(C)C)cc1 (stereo not given)	> 1000	> 1000	> 1000	> 1000	> 2500	> 1000	> 2500
FC(F)(F)c1cccc(CNC2CCN(CCc3ccccc3)CC2)c1	> 1000	> 1000	> 1000	> 1000	> 2500	> 1000	> 2500
Oc1ccc(Cl)cc1CNc1nc2ccccc2[nH]1	> 1000	> 1000	> 1000	> 1000	> 2500	> 1000	> 2500
CCOc1cc(Cl)c(C(C)NC(=O)c2ccccc2)cc1OCC (stereo not given)	> 1000	> 1000	> 1000	> 1000	> 2500	> 1000	> 2500
O=C(Nc1ccc(Cl)cc1)N1CCN(c2ccc3nncn3n2)CC1	> 1000	> 1000	> 1000	> 1000	> 2500	> 1000	> 2500
